As usually defined, the Cmax is the highest concentration seen after dosing. By AUC is commonly meant concentration integrated over time. By Tmax is commonly meant the time at which the peak concentration occurs. The term pIC50 denotes the negative decadic logarithm of the IC50, by convention in mol/L. As a reminder, the half-life is the time in which the quantity being followed falls by half. As a reminder, the clearance is the volume of plasma or blood freed of the substance per unit of time. For orientation: bioavailability means the share of a dose that reaches the circulation, judged against a reference dose that is usually intravenous. By pEC50 is commonly meant the EC50 on a negative log10 scale, so that one unit is a factor of ten.

Results on 24 molecules are retold here after ChEMBL document CHEMBL1143689, “Synthesis and biological evaluation of 3-aryl-3-(4-phenoxy)-propionic acid as a novel series of G protein-coupled receptor 40 agonists” (J Med Chem, 2007).

pEC50, pIC50: −log10 of the molar value. Bounds are passed on as bounds.

Data set [1] addresses Free fatty acid receptor 1 (Homo sapiens) (UniProt O14842). Kind of data set: Agonist activity at human GPR40 expressed in HEK293 cells assessed as effect on calcium flux. The format is functional, cell-based.
Data set [2] shares this target. Put plainly: Agonist activity at human GPR40 expressed in HEK293 cells assessed as calcium flux response relative to linoleic acid. Also on record: concentration or dose not given beside the values. It is filed as functional, cell-based. A general note: A change in cytosolic calcium serves as a functional read-out for many receptors and channels.
Data set [3] has as its target Free fatty acid receptor 1 (Mus musculus) (UniProt Q76JU9). Put plainly: Agonist activity at GPR40 in mouse MIN6 cells assessed as stimulation of 25 mM glucose-mediated insulin secretion at 30 uM. It is filed as functional, cell-based.
Data set [4] can be described thus: Cmax in rat at 2 mg/kg, iv. The format is ADME, organism-based. On the set-up: dose 2 mg/kg, route intravenous. The conditions noted are these: in vivo.
Data set [5] is described as follows: AUC in rat at 2 mg/kg, iv. The format is ADME, organism-based. Also on record: dose 2 mg/kg, route intravenous. The conditions noted are these: plasma.
Data set [6] in a line: Tmax in rat at 10 mg/kg, po. The format is ADME, organism-based. Also on record: dose 10 mg/kg, route oral. The conditions noted are these: in vivo.
For a further data set, the target named is T1, Cytochrome P450 1A2 (Homo sapiens, UniProt P05177).
T1 sequence (P05177 whole entry): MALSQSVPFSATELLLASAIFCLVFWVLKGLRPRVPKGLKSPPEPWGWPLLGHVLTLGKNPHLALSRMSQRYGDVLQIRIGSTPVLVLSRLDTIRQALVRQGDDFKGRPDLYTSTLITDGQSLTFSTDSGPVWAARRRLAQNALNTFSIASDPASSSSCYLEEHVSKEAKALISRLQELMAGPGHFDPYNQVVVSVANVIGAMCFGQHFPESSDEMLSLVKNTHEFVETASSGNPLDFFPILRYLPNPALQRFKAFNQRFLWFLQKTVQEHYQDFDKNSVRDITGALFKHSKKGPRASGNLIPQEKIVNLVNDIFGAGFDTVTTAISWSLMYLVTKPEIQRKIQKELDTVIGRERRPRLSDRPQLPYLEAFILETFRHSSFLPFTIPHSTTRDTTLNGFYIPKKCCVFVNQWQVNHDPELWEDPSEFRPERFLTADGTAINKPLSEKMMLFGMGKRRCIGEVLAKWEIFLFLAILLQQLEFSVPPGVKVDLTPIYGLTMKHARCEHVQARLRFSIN
Kind of data set: Inhibition of human CYP1A2. The format is ADME.

Data set [7] can be described thus: Half life in rat at 2 mg/kg, iv. The format is ADME, organism-based. On the set-up: dose 2 mg/kg, route intravenous. Conditions: in vivo.
Data set [8] is described as follows: Cmax in rat at 10 mg/kg, po. Also on record: dose 10 mg/kg, route oral. It is filed as ADME, organism-based. Conditions: in vivo.
Another data set deals with Cytochrome P450 2C19 (Homo sapiens, UniProt P33261). Kind of data set: Inhibition of human CYP2C19. It is filed as ADME.
Data set [9] is described as follows: AUC in rat at 10 mg/kg, po. It is filed as ADME, organism-based. On the set-up: dose 10 mg/kg, route oral. Conditions: plasma.
Data set [10] is described as follows: Clearance in rat at 2 mg/kg, iv. It is filed as ADME, organism-based. Also on record: dose 2 mg/kg, route intravenous. The conditions noted are these: in vivo.
For a further data set, the target named is Cytochrome P450 2D6 (Homo sapiens, UniProt P10635). Put plainly: Inhibition of human CYP2D6. The format is ADME.
A short description of data set [11]: Half life in rat at 10 mg/kg, po. On the set-up: dose 10 mg/kg, route oral. The conditions noted are these: in vivo. The format is ADME, organism-based.
The nature of data set [12]: Tmax in rat at 2 mg/kg, iv. It is filed as ADME, organism-based. On the set-up: dose 2 mg/kg, route intravenous. Conditions: in vivo.
The next data set addresses Cytochrome P450 2C9 (Homo sapiens, UniProt P11712). Kind of data set: Inhibition of human CYP2C9. It is filed as ADME.
The next data set has as its target Cytochrome P450 3A4 (Homo sapiens, UniProt P08684). Kind of data set: Inhibition of human CYP3A4. The format is ADME.
The nature of data set [13]: Oral bioavailability in rat at 10 mg/kg, po. It is filed as ADME, organism-based. Conditions: in vivo.
Data set [14] has as its target Free fatty acid receptor 1 (Mus musculus) (UniProt Q76JU9). Put plainly: Agonist activity at GPR40 in mouse MIN6 cells assessed as stimulation of 5 mM glucose-mediated insulin secretion at 30 uM. It is filed as functional, cell-based.
Data set [15] deals with Free fatty acid receptor 1 (Mus musculus, UniProt Q76JU9). Kind of data set: Agonist activity at GPR40 in mouse MIN6 cells assessed as stimulation of 25 mM glucose-mediated insulin secretion. The format is functional, cell-based.
Chain of Free fatty acid receptor 1 (Q76JU9 whole entry): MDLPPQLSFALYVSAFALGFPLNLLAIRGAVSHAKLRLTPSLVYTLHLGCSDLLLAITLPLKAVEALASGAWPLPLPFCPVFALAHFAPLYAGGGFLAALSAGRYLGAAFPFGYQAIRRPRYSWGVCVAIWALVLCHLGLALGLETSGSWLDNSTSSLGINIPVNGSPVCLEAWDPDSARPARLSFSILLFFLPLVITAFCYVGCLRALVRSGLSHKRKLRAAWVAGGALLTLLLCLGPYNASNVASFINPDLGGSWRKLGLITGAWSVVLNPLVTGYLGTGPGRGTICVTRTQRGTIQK

Chain of Free fatty acid receptor 1 (Homo sapiens) (O14842 whole entry): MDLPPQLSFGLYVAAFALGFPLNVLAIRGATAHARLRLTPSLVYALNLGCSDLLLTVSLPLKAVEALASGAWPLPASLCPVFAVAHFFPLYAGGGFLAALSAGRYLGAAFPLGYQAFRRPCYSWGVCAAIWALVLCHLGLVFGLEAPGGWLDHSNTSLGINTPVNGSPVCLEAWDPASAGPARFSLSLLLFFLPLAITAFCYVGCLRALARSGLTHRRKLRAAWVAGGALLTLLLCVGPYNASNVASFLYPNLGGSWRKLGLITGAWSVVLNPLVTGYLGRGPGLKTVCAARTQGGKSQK
Chain of Free fatty acid receptor 1 (Mus musculus) (Q76JU9 whole entry): as the sequence (Q76JU9 whole entry) above
Chain of Cytochrome P450 2C19 (P33261 whole entry): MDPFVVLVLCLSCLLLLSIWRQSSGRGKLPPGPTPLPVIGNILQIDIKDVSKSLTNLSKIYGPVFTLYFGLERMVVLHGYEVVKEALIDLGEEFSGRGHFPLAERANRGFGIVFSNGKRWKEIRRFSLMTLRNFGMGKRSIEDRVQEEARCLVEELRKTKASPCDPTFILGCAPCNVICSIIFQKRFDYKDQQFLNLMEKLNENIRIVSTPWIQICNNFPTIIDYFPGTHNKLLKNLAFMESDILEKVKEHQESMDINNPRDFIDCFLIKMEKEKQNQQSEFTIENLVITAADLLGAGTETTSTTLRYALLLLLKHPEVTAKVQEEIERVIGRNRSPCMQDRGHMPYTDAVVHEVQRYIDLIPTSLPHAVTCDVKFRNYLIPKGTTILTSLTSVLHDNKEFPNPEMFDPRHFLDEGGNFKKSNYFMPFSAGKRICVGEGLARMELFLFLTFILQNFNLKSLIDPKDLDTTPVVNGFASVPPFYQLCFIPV
Chain of Cytochrome P450 2D6 (P10635 whole entry): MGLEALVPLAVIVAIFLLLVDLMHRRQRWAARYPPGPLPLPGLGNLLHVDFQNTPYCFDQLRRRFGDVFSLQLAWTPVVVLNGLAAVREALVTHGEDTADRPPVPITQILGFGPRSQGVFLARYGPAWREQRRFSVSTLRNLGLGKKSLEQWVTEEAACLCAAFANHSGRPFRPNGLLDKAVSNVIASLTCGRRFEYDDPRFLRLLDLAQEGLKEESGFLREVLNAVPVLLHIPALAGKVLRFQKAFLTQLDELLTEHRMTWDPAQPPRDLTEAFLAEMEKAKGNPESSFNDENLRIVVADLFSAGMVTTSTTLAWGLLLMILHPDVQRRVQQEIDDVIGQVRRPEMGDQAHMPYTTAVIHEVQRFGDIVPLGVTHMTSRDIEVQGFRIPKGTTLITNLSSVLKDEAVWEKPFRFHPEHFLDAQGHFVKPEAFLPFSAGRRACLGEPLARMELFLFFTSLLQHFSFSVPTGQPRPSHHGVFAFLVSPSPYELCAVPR
Chain of Cytochrome P450 3A4 (P08684 whole entry): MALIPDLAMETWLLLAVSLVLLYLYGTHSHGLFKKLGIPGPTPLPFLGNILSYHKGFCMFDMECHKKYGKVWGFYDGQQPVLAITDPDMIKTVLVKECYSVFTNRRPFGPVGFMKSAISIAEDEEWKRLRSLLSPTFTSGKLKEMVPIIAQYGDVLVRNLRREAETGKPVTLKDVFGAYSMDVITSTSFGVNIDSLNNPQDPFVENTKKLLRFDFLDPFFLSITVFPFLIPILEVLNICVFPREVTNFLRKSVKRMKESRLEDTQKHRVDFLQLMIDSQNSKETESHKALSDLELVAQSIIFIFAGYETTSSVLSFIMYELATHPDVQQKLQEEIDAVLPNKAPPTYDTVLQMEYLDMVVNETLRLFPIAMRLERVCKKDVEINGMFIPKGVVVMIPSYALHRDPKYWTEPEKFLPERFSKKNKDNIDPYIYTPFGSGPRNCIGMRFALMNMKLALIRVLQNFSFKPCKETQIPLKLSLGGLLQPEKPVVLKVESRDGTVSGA
Chain of Cytochrome P450 2C9 (P11712 whole entry): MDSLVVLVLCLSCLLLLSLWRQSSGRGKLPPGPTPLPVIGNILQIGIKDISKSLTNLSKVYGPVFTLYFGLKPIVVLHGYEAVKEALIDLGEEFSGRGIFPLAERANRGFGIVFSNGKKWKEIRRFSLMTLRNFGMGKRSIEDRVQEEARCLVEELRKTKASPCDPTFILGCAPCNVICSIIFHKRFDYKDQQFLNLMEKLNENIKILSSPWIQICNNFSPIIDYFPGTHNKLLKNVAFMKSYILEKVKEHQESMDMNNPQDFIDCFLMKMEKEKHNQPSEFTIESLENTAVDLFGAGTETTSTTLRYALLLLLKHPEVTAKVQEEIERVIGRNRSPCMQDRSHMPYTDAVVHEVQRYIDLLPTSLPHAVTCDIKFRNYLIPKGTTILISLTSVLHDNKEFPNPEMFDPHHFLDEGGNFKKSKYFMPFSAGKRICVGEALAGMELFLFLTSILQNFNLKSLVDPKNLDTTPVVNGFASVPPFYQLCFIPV

For `O=C(O)CC(c1ccccc1)c1ccc(OCCCC(F)(F)F)cc1` (stereo not drawn), the ED50 in data set [1] was found to be 3160 nM. In addition, the Activity in data set [2] came to 72%.

In the case of `CCCCCOc1ccc(C(CC(=O)O)c2ccccc2)cc1` (stereo not drawn), the ED50 in data set [1] was 2970 nM. For the same molecule, the Activity in [2] was 60%; in data set [3], 122%.

With `CC(C)CCOc1ccc(C(CC(=O)O)c2ccccc2)cc1` (stereo not drawn), the ED50 in data set [1] stood at 1860 nM. The Activity in [2] is 77%.

As to `CCCCOc1ccc(C(CC(=O)O)c2ccc(C(F)(F)F)cc2)cc1` (stereo not drawn), in [1], the ED50 is above 10000 nM. In [2], the Activity worked out at 3%.

Turning to `CCCCOc1ccc(C(CC(=O)O)c2cccc(F)c2)cc1` (stereo not drawn), the ED50 in data set [1] turned out to be 1440 nM. For the same molecule, the Activity in [2] was found to be 81%.

`CCCCCCOc1ccc(C(CC(=O)O)c2ccccc2)cc1` (stereo not drawn): in data set [1], the ED50 was found to be 2880 nM. The Activity was 68% in data set [2] and 137% in data set [3].

Consider `CCC(C)COc1ccc(C(CC(=O)O)c2ccccc2)cc1` (stereo not drawn), for which the Cmax is 5780 ng/mL in data set [4] and 4760 ng/mL in data set [8]. Also, the AUC in [5] came out at 2480 ng·h/mL; in data set [9] it was 10700 ng·h/mL. For the same molecule, the ED50 in data set [1] stood at 300 nM. Also, in data set [2], the Activity was 98%. Besides, the Tmax amounted to 0.5 h in data set [6] and 4.8 min in [12]. Besides, the pIC50 on Cytochrome P450 1A2, at Cytochrome P450 2C19, against Cytochrome P450 2D6, at Cytochrome P450 2C9 and against Cytochrome P450 3A4 was below 4.66 throughout. For the same molecule, the figures for the half-life in [7] and in data set [11] were 4.78 h and 6.33 h, respectively. For the same molecule, the clearance in [10] was 13.8 mL/min/kg. For the same molecule, the bioavailability in data set [13] came out at 87%.

`CCCCOc1ccc(C(CCCC(=O)O)c2ccccc2)cc1` (stereo not drawn): the ED50 in data set [1] was above 10000 nM. Further, the Activity in data set [2] came to 3%.

In the case of `CCCCOc1ccc(C(CC(=O)O)c2ccccc2)cc1` (stereo not drawn), the ED50 in data set [1] came out at 1200 nM. Further, the Activity in data set [2] amounted to 72%.

For the molecule `CCCOc1ccc(C(CC(=O)O)c2ccccc2)cc1` (stereo not drawn), the ED50 in data set [1] was 4800 nM. Also, the Activity in data set [2] was 68%.

For `CCCCCCCOc1ccc(C(CC(=O)O)c2ccccc2)cc1` (stereo not drawn), the ED50 in data set [1] was determined as 4260 nM. For the same molecule, the Activity in data set [2] was found to be 70%.

On to `CC[C@@H](C)COc1ccc(C(CC(=O)O)c2ccccc2)cc1` (stereo in doubt; 22(A,R)), for which the ED50 in data set [1] was above 10000 nM. For the same molecule, in [2], the Activity was 3%.

As for `CCCCCOc1cccc(C(CC(=O)O)c2ccccc2)c1` (stereo not drawn), the ED50 in data set [1] was above 10000 nM. Further, the Activity in data set [2] was 6%.

For the molecule `CC[C@H](C)COc1ccc(C(CC(=O)O)c2ccccc2)cc1` (stereo in doubt; 22(B,S)), the ED50 in data set [1] came to 560 nM. Further, the Activity in data set [2] turned out to be 94%.

Take `CCCCOc1ccc(C(CC(=O)O)c2ccccc2O)cc1` (stereo not drawn): the ED50 in data set [1] came to 4800 nM. Further, the Activity in data set [2] was 66%.

As to `CCCCC/C=C\C/C=C\CCCCCCCC(=O)O`, the Activity in data set [3] amounted to 172%; in [14], 141%.

With `CCC(CC)COc1ccc(C(CC(=O)O)c2ccccc2)cc1` (stereo not drawn), the ED50 in data set [1] was determined as 640 nM. Further, the Activity in [2] is 96%; in data set [3], 155%. In addition, the pEC50 in data set [15] is 5.66.

Consider `CC[C@H](C)COc1ccc(C(CC(=O)O)c2ccccc2)cc1` (stereo in doubt; 22(A,S)), for which the ED50 in data set [1] was above 10000 nM. For the same molecule, in data set [2], the Activity is 2%.

As for `C=C(C)CCOc1ccc(C(CC(=O)O)c2ccccc2)cc1` (stereo not drawn), in data set [1], the ED50 worked out at 2710 nM. Further, in [2], the Activity was found to be 81%.

In the case of `CCCCOc1ccc(C(CC(=O)O)c2cccc(C(F)(F)F)c2)cc1` (stereo not drawn), the ED50 in [1] was 2840 nM. The Activity in data set [2] amounted to 75%.

For the molecule `CCCCOc1ccc(C(CC(=O)O)c2cccs2)cc1` (stereo not drawn), in data set [1], the ED50 was found to be 1290 nM. The figures for the Activity in [2] and in data set [3] were 79% and 171%, respectively.

`CC[C@@H](C)COc1ccc(C(CC(=O)O)c2ccccc2)cc1` (stereo in doubt; 22(B,R)): the ED50 in [1] amounted to 710 nM. Besides, in data set [2], the Activity was found to be 98%.

As to `C/C=C/COc1ccc(C(CC(=O)O)c2ccccc2)cc1` (stereo not drawn), the ED50 in data set [1] turned out to be 2710 nM. Besides, the Activity in data set [2] came to 75%.

As to `COCCCOc1ccc(C(CC(=O)O)c2ccccc2)cc1` (stereo not drawn), the ED50 in data set [1] came out at 7580 nM. Further, the Activity in [2] was found to be 43%.
